Measured values published in ChEMBL document CHEMBL1155701, “Two novel cyclic peptides with antifungal activity from the cyanobacterium Tolypothrix byssoidea (EAWAG 195)” (J Nat Prod, 2001).
≈ marks a conversion by molar mass, not a printed value. Non-standard residues stand in square brackets, D forms with d. Residues, ends and D or L forms follow the SMILES beside them. Dhb = C/C=C(\N)C(=O)O

System: Candida albicans
Test: Antifungal activity against Candida albicans ATCC 26790
Assay type: functional, organism-based

| SMILES | MIC [µg/mL] | IC50 [µg/mL] |
| --- | --- | --- |
| C/C=C1\NC(=O)[C@H](Cc2ccccc2)NC(=O)[C@H]([C@@H](C)CC)NC(=O)[C@H]([C@@H](C)CC)NC(=O)[C@H]([C@@H](C)O)NC(=O)[C@@H](CC(C)C)NC(=O)[C@H](CCCNC(=N)N)NC(=O)[C@H]2CCCN2C(=O)[C@H](C(C)C)NC(=O)[C@H](C(C)C)NC(=O)[C@H]([C@@H](C)O)NC(=O)[C@H]([C@@H](C)OC(C)=O)NC(=O)[C@H](C(C)C)NC1=O | 32 (≈ 21.8 µM) | – |
| C/C=C1\NC(=O)[C@H](C(C)C)NC(=O)[C@H](Cc2ccccc2)NC(=O)[C@H](C(C)C)NC(=O)[C@H](C(C)C)NC(=O)[C@H](C(C)C)NC(=O)[C@H]([C@@H](C)O)NC(=O)[C@H]([C@@H](C)CC)NC(=O)[C@H]([C@@H](C)O)NC(=O)[C@H](C(C)C)NC(=O)[C@H](CCSC)NC(=O)[C@H](Cc2ccc(O)cc2)NC(=O)[C@H](CCCNC(=N)N)NC1=O (cyclo([Dhb]RYMVTITVVVFV)) | 64 (≈ 42.9 µM) | – |
| Clc1ccc(COC(Cn2ccnc2)c2ccc(Cl)cc2Cl)c(Cl)c1 (stereo not drawn) [MICONAZOLE] | – | 8 (≈ 19.2 µM) |
